± gives the standard deviation of the averaged measurements.
System: HepaRG
Test: LDH release cytotoxicity, % of total lysis control; higher = more cytotoxic
Details: 48 h
In short: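 Duplicate wells of single-lot HepaRG cells, grown on collagen I-coated 96-well plates, received eight-point half-log series of test chemicals with 100 µM as the top concentration. Exposure lasted 48 h in serum-free induction medium with 0.5% DMSO, while total lysis wells received 0.1% Triton X. Resorufin fluorescence (CytoTox-ONE, Tecan Safire) was used to quantify LDH leaked into 50 µL of spent medium. Values for percent cytotoxicity were normalized to on-plate vehicle and total lysis controls and averaged across the duplicates.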

| Compound | LDH release cytotoxicity (0.03162 µM) [%] | LDH release cytotoxicity (0.1 µM) [%] | LDH release cytotoxicity (0.3162278 µM) [%] | LDH release cytotoxicity (1 µM) [%] | LDH release cytotoxicity (3.16228 µM) [%] | LDH release cytotoxicity (10 µM) [%] | LDH release cytotoxicity (31.6228 µM) [%] | LDH release cytotoxicity (100 µM) [%] | further results |
| --- | --- | --- | --- | --- | --- | --- | --- | --- | --- |
| CCCC1=NC(=S)NC(=O)C1 [6-Propyl-2-thiouracil] | -1.25 ± 0.13 | -1.68 ± 0.29 | -2.72 ± 0.31 | -2.49 ± 0.1 | -2.28 ± 0.038 | -1.9 ± 0.03 | -1.25 ± 0.71 | 0.0182 ± 1.5 | – |
| CCCN(CCC)N=O [N-Nitrosodi-n-propylamine] | 0.0788 ± 0.46 | -0.576 ± 0.82 | -1.11 ± 1.1 | -2.21 ± 1.1 | -1.474 ± 0.0032 | -1.09 ± 0.64 | -1.53 ± 0.55 | 0.635 ± 0.017 | – |
| c1ccc2ncccc2c1 [Quinoline] | -1.44 ± 0.36 | 0.113 ± 1.4 | -0.853 ± 0.57 | -1.155 ± 0.0096 | 0.144 ± 0.76 | -1.28 ± 1.3 | -0.47 ± 0.21 | 2.26 ± 1.6 | – |
| C#CCC1=C(C)C(OC(=O)C2C(C=C(C)C)C2(C)C)CC1=O (centres undefined) [Prallethrin] | – | – | – | – | – | – | – | – | LDH release cytotoxicity (0.0314647 µM): -1.54 ± 0.38%; LDH release cytotoxicity (0.0995 µM): -0.874 ± 0.13%; LDH release cytotoxicity (0.3146466 µM): -2.55 ± 0.44%; LDH release cytotoxicity (0.995 µM): -2.33 ± 0.64%; LDH release cytotoxicity (3.14647 µM): -1.9 ± 0.26%; LDH release cytotoxicity (9.95 µM): -1.44 ± 0.14%; LDH release cytotoxicity (31.4647 µM): -2.39 ± 0.63%; LDH release cytotoxicity (99.5 µM): 3.9 ± 1.4% |
| Nc1ccc(Oc2ccc(N)cc2)cc1 [4,4'-Oxydianiline] | – | -3.05 ± 0.94 | – | -2.52 ± 0.66 | -1.772 ± 0.0034 | -0.999 ± 2.1 | 17 ± 3.5 | 62.8 ± 3.5 | LDH release cytotoxicity (0.031623 µM): -1.51 ± 0.78%; LDH release cytotoxicity (0.316228 µM): -1.18 ± 1.3% |
| CCOP(=S)(OCC)Oc1nc(Cl)n(C(C)C)n1 [Isazofos] | – | -1.65 ± 0.25 | – | -2.59 ± 0.06 | -3.48 ± 0.65 | -3 ± 0.69 | -3.67 ± 1.1 | 1.66 ± 0.81 | LDH release cytotoxicity (0.031623 µM): 0.0296 ± 0.94%; LDH release cytotoxicity (0.316228 µM): -2.1 ± 1% |
| Cc1cc(Cc2ccc(N)c(C)c2)ccc1N [4,4'-Diamino-3,3'-dimethyldiphenylmethane] | -1.54 ± 0.07 | -0.939 ± 0.25 | -0.759 ± 0.17 | -1.39 ± 0.074 | -0.662 ± 0.88 | -0.124 ± 0.55 | -0.39 ± 0.76 | -0.749 ± 1.9 | – |
| C=CCC1=C(C)C(OC(=O)C2C(C=C(C)C)C2(C)C)CC1=O (centres undefined) [S-Bioallethrin] | – | – | – | – | – | – | – | – | LDH release cytotoxicity (0.0147 µM): -2.51 ± 0.52%; LDH release cytotoxicity (0.0465 µM): -1.46 ± 0.56%; LDH release cytotoxicity (0.147046 µM): -1.76 ± 0.23%; LDH release cytotoxicity (0.465 µM): -2.13 ± 0.17%; LDH release cytotoxicity (1.4704591 µM): -1.73 ± 0.45%; LDH release cytotoxicity (4.65 µM): -1.51 ± 0.71%; LDH release cytotoxicity (14.7046 µM): -0.957 ± 0.95%; LDH release cytotoxicity (46.5 µM): 0.422 ± 0.55% |
| Cn1cnc([N+](=O)[O-])c1Sc1ncnc2nc[nH]c12 [Azathioprine] | – | – | – | – | – | – | – | – | LDH release cytotoxicity (0.0314647 µM): -0.881 ± 1.4%; LDH release cytotoxicity (0.0995 µM): -1.48 ± 0.6%; LDH release cytotoxicity (0.3146466 µM): -1.64 ± 0.77%; LDH release cytotoxicity (0.995 µM): -0.793 ± 1.6%; LDH release cytotoxicity (3.14647 µM): 1.06 ± 0.75%; LDH release cytotoxicity (9.95 µM): 4.17 ± 1.2%; LDH release cytotoxicity (31.4647 µM): 6.78 ± 0.16%; LDH release cytotoxicity (99.5 µM): 8.21 ± 1.2% |
| O=C(CCl)c1ccccc1 [2-Chloroacetophenone] | -1 ± 0.077 | -0.706 ± 0.44 | 0.0478 ± 0.81 | -0.336 ± 0.2 | -0.414 ± 0.23 | 0.0717 ± 0.49 | 1.4 ± 0.058 | 17.7 ± 0.94 | – |
| CCCCCCOC(=O)CC(CC(=O)OCCCCCC)(OC(=O)CCC)C(=O)OCCCCCC [Butyryl-n-trihexylcitrate] | -0.556 ± 0.23 | -0.753 ± 0.66 | -0.622 ± 0.2 | -0.825 ± 0.23 | -0.796 ± 0.43 | -0.597 ± 0.75 | -0.0452 ± 0.87 | 0.5774 ± 0.0031 | – |
| CCNc1nc(Cl)nc(NC(C)(C)C)n1 [Terbutylazine] | 0.3 ± 1.3 | -1.75 ± 0.07 | -0.304 ± 1.2 | -1.25 ± 0.2 | -0.494 ± 0.44 | -0.989 ± 0.83 | -0.271 ± 1.1 | -0.0173 ± 1.5 | – |
| Cc1c(C)c2c(c(C)c1O)CCC(C)(COc1ccc(CC3SC(=O)NC3=O)cc1)O2 (centres undefined) [Troglitazone] | -0.878 ± 0.32 | -0.342 ± 0.96 | -1.04 ± 0.091 | -0.379 ± 0.37 | -0.376 ± 0.74 | -1.1 ± 0.028 | 8.12 ± 13 | 62.4 ± 2.7 | – |
| OC(Cn1cncn1)(Cn1cncn1)c1ccc(F)cc1F [Fluconazole] | -1.56 ± 0.43 | -0.0671 ± 1.1 | 0.556 ± 0.68 | -0.472 ± 0.33 | 0.965 ± 0.97 | 0.138 ± 0.29 | 0.241 ± 0.57 | 0.712 ± 0.97 | – |
| CCCCC(CC)CO (centres undefined) [2-Ethyl-1-hexanol] | – | – | – | – | – | – | – | – | LDH release cytotoxicity (0.0320971 µM): -0.547 ± 0.26%; LDH release cytotoxicity (0.1015 µM): -0.771 ± 0.15%; LDH release cytotoxicity (0.320971 µM): -0.413 ± 0.19%; LDH release cytotoxicity (1.015 µM): -0.597 ± 0.57%; LDH release cytotoxicity (3.2097118 µM): 0.185 ± 0.13%; LDH release cytotoxicity (10.15 µM): 0.421 ± 0.39%; LDH release cytotoxicity (32.0971 µM): 0.242 ± 0.43%; LDH release cytotoxicity (101.5 µM): 0.842 ± 0.13% |
| CC(C)COC(=O)CCCCC(=O)OCC(C)C [Diisobutyl adipate] | -1.813 ± 0.015 | -2.01 ± 0.88 | -0.902 ± 0.055 | -2.26 ± 0.4 | -2.38 ± 0.66 | -0.129 ± 0.52 | 7.28 ± 1 | 46.4 ± 4.1 | – |
| CCCCC(CC)C(=O)OCCOCCOCCOC(=O)C(CC)CCCC (centres undefined) [Triethylene glycol bis(2-ethylhexanoate)] | -2.57 ± 0.42 | -3.93 ± 0.075 | -3.45 ± 0.14 | -3.69 ± 0.87 | -3.81 ± 1.2 | -4.01 ± 1.4 | -5.53 ± 4 | -1.89 ± 0.23 | – |
| CCC1OC(=O)C(C)C(OC2CC(C)(OC)C(O)C(C)O2)C(C)C(OC2OC(C)CC(N(C)C)C2O)C(C)(O)CC(C)C(=O)C(C)C(O)C1(C)O (centres undefined) [Erythromycin] | – | – | – | – | – | – | – | – | LDH release cytotoxicity (0.02356 µM): -1.71 ± 1.6%; LDH release cytotoxicity (0.0745 µM): -2.96 ± 1%; LDH release cytotoxicity (0.23559 µM): -1.94 ± 1%; LDH release cytotoxicity (0.745 µM): -3.63 ± 0.23%; LDH release cytotoxicity (2.3559 µM): -3.02 ± 1.1%; LDH release cytotoxicity (7.45 µM): -2.85 ± 0.59%; LDH release cytotoxicity (23.559 µM): -1.9 ± 0.73%; LDH release cytotoxicity (74.5 µM): -0.102 ± 1.1% |
